Assay results: patent US9376418B2, “Substituted pyridine spleen tyrosine kinase (SYK) inhibitors” (Merck Sharp & Dohme Corp., priority 2012, dated 2016)

Biological target: T1, recombinant human GST-SYK (Homo sapiens, UniProt P43405)
T1 construct: purchased Carna Biosciences 08-176
Test: Homogeneous Time-Resolved Fluorescence (HTRF) assay for the recombinant human Syk enzyme
Assay type: biochemical
Details: HTRF assay, recombinant human GST-SYK; IC50 given as class symbols; read-out: rhSYK Activity
In short: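 Phosphorylation of a biotinylated Syk substrate peptide (250 nM) was run for 45 min at room temperature with 25 μM ATP and 5 mM Mg. It followed a 10-min preincubation of GST-hSYK ([…]) with compound in 15 mM Tris-HCl pH 7.5, 2 mM DTT. Product was detected by time-resolved fluorescence using a europium anti-phosphotyrosine antibody plus SA-APC in EDTA-containing quench buffer.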

IC50	Structure (SMILES)
< 100 nM	CNCc1ccc(-c2cc(C)cc(Nc3nccc(C(F)(F)F)n3)c2)cn1 [Example 2.49, N-(3-methyl-5-{6-[(methylamino)methyl]pyridin-3-yl}phenyl)-4-(trifluoromethyl)pyrimidin-2-amine]
100 to 1000 nM	Cc1cc(Nc2nccc(C(F)(F)F)n2)cc(-c2cnc(O)c(N)c2C)c1 [Example 2.51, 3-amino-4-methyl-5-(3-methyl-5-{[4-(trifluoromethyl)pyrimidin-2-yl]amino}phenyl)pyridin-2-ol]
< 100 nM	Cc1cc(Nc2nccc(C(F)(F)F)n2)cc(-c2cnc3c(c2)OCCN3)c1 [Example 2.52, N-[3-(3,4-dihydro-2H-pyrido[3,2-b][1,4]oxazin-7-yl)-5-methylphenyl]-4-(trifluoromethyl)pyrimidin-2-amine]
100 to 1000 nM	COC(=O)c1cncc(-c2cc(C)cc(Nc3nccc(C(F)(F)F)n3)c2)c1 [Example 2.53, methyl 5-(3-methyl-5-{[4-(trifluoromethyl)pyrimidin-2-yl]amino}phenyl)pyridine-3-carboxylate]
100 to 1000 nM	Cc1cc(Nc2nccc(C(F)(F)F)n2)cc(-c2cncc(C(F)(F)F)c2)c1 [Example 2.54, N-{3-methyl-5-[5-(trifluoromethyl)pyridin-3-yl]phenyl}-4-(trifluoromethyl)pyrimidin-2-amine]
< 100 nM	Cc1cc(Nc2nccc(C(F)(F)F)n2)cc(-c2cnc3c(c2)OCCN3C)c1 [Example 2.55, N-[3-methyl-5-(4-methyl-3,4-dihydro-2H-pyrido[3,2-b][1,4]oxazin-7-yl)phenyl]-4-(trifluoromethyl)pyrimidin-2-amine]
< 100 nM	Cc1cc(Nc2nccc(C(F)(F)F)n2)cc(-c2cncc(C#N)c2)c1 [Example 2.56, 5-(3-methyl-5-{[4-(trifluoromethyl)pyrimidin-2-yl]amino}phenyl)pyridine-3-carbonitrile]
< 100 nM	Cc1cc(Nc2nccc(C(F)(F)F)n2)cc(-c2cccnc2)c1 [Example 2.57, N-(3-methyl-5-pyridin-3-ylphenyl)-4-(trifluoromethyl)pyrimidin-2-amine]
< 100 nM	COc1cncc(-c2cc(C)cc(Nc3nccc(C(F)(F)F)n3)c2)c1 [Example 2.58, N-[3-(5-methoxypyridin-3-yl)-5-methylphenyl]-4-(trifluoromethyl)pyrimidin-2-amine]
< 100 nM	Cc1cc(Nc2nccc(C(F)(F)F)n2)cc(-c2ccc(N3CCCNCC3)nc2)c1 [Example 2.59, N-{3-[6-(1,4-diazepan-1-yl)pyridin-3-yl]-5-methylphenyl}-4-(trifluoromethyl)pyrimidin-2-amine]
100 to 1000 nM	Cc1cc(Nc2nccc(C(F)(F)F)n2)cc(-c2ccc(OC3CCOCC3)nc2)c1 [Example 2.61, N-{3-methyl-5-[6-(tetrahydro-2H-pyran-4-yloxy)pyridin-3-yl]phenyl}-4-(trifluoromethyl)pyrimidin-2-amine]
100 to 1000 nM	Cc1cc(Nc2nccc(C(F)(F)F)n2)cc(-c2ccc(NS(=O)(=O)N3CCCCC3)nc2)c1 [Example 2.62, N-[5-(3-methyl-5-{[4-(trifluoromethyl)pyrimidin-2-yl]amino}phenyl)pyridin-2-yl]piperidine-1-sulfonamide]
< 100 nM	Cc1cc(Nc2nccc(C(F)(F)F)n2)cc(-c2ccc(CN)nc2)c1 [Example 2.63, N-{3-[6-(aminomethyl)pyridin-3-yl]-5-methylphenyl}-4-(trifluoromethyl)pyrimidin-2-amine]
100 to 1000 nM	COC(=O)c1ccc(-c2cc(C)cc(Nc3nccc(C(F)(F)F)n3)c2)cn1 [Example 2.65, methyl 5-(3-methyl-5-{[4-(trifluoromethyl)pyrimidin-2-yl]amino}phenyl)pyridine-2-carboxylate]
< 100 nM	Cc1cc(Nc2nccc(C(F)(F)F)n2)cc(-c2cncc(CO)c2)c1 [Example 2.66, [5-(3-methyl-5-{[4-(trifluoromethyl)pyrimidin-2-yl]amino}phenyl)pyridin-3-yl]methanol]
